This is an account of results in paper PMC10716780, “The multistep oxidation of cholesterol to pregnenolone by human cytochrome P450 11A1 is highly processive” (The Journal of Biological Chemistry, 2023).

Entries after “also recorded” stand apart in the source; their conditions may differ. Where two headings read alike, the source gives them in different places.

Series [1] concerns the target T1, human P450 11A1 (Homo sapiens, UniProt P05108).
T1 construct: M A S T R S P R P F N E I P S P G D N; Met-Ala (N-terminal start residues in place of the transit peptide and Ile40) (N); made in house; host or cells: E. coli C41(DE3) with GroES/GroEL, vector pET23C(+)
T1 sequence (P05108 41-521 limits assumed): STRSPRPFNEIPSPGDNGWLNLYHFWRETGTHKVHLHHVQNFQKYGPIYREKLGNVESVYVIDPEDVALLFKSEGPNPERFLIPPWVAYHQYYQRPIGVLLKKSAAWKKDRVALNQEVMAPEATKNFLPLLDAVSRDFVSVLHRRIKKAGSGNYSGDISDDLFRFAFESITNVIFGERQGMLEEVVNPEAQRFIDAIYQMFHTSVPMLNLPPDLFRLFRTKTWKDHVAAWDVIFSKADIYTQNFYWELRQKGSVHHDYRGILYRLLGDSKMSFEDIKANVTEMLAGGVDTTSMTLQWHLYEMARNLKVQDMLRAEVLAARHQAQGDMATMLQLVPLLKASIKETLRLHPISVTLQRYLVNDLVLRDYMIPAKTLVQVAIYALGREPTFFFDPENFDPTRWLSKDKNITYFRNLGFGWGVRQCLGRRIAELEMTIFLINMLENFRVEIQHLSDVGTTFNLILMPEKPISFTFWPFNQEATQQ
The series is described as follows: Steady-state spectral (type I) binding titration, Kd determination. Conditions: up to 1 mM. On the procedure: Ligand binding constants were determined from the low-to high-spin (hypsochromic) spectral transition that occurs at the P450 heme as substrate entering the active site replaces water as the sixth axial heme ligand. […] As a result, we subsequently measured koff values of the P450-sterol complexes, which were consistent with the low Kd values observed (see below). Binding titrations were repeated in the presence of Adx (1 M equivalent, Fig. 6), although no significant effect was observed, even when Adx was added in excess (10-fold with cholesterol as the substrate, data not shown).
Spectra were recorded using either an OLIS-Cary 14 or OLIS-Aminco DW2a instrument (On-Line Instrument Systems) in the split-beam mode. The OLIS-Cary 14 instrument was used in the P450 11A1 titrations with a 10-cm cell (Starna Cells, catalog no. 34-Q-100, volume 25 ml).
Kd values were determined by difference spectroscopy as previously reported ([33], [43]) but with some modifications. Briefly, a long-path quartz cuvette (10 cm, 25 ml) containing P450 11A1 (0.1 μM, in 100 mM potassium phosphate buffer (pH 7.4)) was prepared and a baseline was recorded in an OLIS-Cary 14 spectrophotometer. Where indicated, the redox partner Adx was added in equimolar concentration (0.1 μM) to P450. Sterol solutions (in 45% HPCD, w/v) were added to the cuvette, the contents of the cuvette were inverted to mix, and a spectrum was recorded (350–500 nm) after each addition. The total volume added to each cuvette was kept ≤2% (v/v, 0.25 ml) in the assay. The maximum absorbance difference (usually ΔA390−A418) was plotted against the total sterol concentration, and the data were fit to a quadratic equation in GraphPad Prism software (GraphPad, https://www.graphpad.com) to estimate the dissociation constant (Kd). A quadratic equation was used to correct the ligand concentration for the enzyme-bound concentration (used as Y=B+A/2∗1/E∗((Kd+E+X)−(Kd+E+X)^2−(4∗E∗X)) (or Y = B + (A/2)∗(1/E)∗((Kd + E + X)-sqrt((Kd + E + X)∧2 -(4∗E∗X)) in Prism software), where E = enzyme concentration, Kd = dissociation constant, and X = […]).

The target of series [2] is T2, human P450 11A1 (Homo sapiens, UniProt P05108).
T2 sequence (P05108 41-521 limits assumed): T1 sequence (P05108 41-521 limits assumed)
T2 sequence (P00257 59-186 partner): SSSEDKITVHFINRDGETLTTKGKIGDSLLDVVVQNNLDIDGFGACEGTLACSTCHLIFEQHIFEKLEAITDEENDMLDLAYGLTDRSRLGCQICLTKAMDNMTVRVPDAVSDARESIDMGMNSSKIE
The series is described as follows: Effect of Tween 20 and lipids on P450 11A1 catalytic activity (cholesterol to pregnenolone). Conditions: for effect on P450 11A1 catalytic activity: 50 μM cholesterol, 0.25 μM P450 11A1, lipids 30 μM phospholipid. On the procedure:
The substrate cholesterol and its 22R-OH and 20R,22R-(OH)2 products were delivered in 2-hydroxypropyl-β-cyclodextrin (HPCD) ([36]) in assays, circumventing the need to use any detergents or organic solvents.
Reactions were run in triplicate and the conversion of cholesterol to pregnenolone was calculated and plotted (nmol pregnenolone formed min^−1 (nmol P450)^−1). (Note: These assays were done with P450 11A1 purified in the absence of Tween 20.). AdR, adrenodoxin reductase; Adx, adrenodoxin; P450, cytochrome P450.
Reactions were run in triplicate and the conversion of cholesterol to pregnenolone was calculated and plotted (nmol pregnenolone formed min^−1 (nmol P450)^−1). AdR, adrenodoxin reductase; Adx, adrenodoxin; P450, cytochrome P450.
Sterol dilutions were performed in HPCD to ensure that the HPCD composition was equal throughout all incubations (final 4.5% w/v). The reaction mixture was split between vials (425 μl in each), and reactions were preincubated (37 °C, 5 min) prior to initiation (75 μl) with an NADPH-generating system (0.5 mM NADP^+, 10 mM glucose 6-phosphate, and 2 μg ml^−1 glucose 6-phosphate dehydrogenase) ([61]). Reactions (5 min) were terminated by extraction into CH2Cl2 (2 ml) and transferred to an ice bath. After the experiment was complete, the quenched reactions were subjected to centrifugation (10^3g, 5 min, 23 °C) to separate layers, the organic (bottom) layer of each sample was removed (1.6 ml) to fresh glass vials, and the samples were brought to dryness under a stream of nitrogen.

Series [3] deals with T2, human P450 11A1. The series is described as follows: Kinetic isotope effect assay, disappearance of d0- and d3-cholesterol under single-turnover conditions. Type of series: biochemical. More on the design: M A S T R S P R P F N E I P S P G D N; Met-Ala (N-terminal start residues in place of the transit peptide and Ile40) (N); made in house; host or cells: E. coli (P450 11A1 in C41(DE3); Adx and AdR in E. coli). Conditions: for kinetic isotope effect: C-22 hydroxylation, single-turnover. How it is done:
(§1) P450 11A1 incubations were performed under (low Adx) single-turnover conditions (5 μM P450, 5 μM cholesterol; see Experimental procedures) with d0- (authentic, unlabeled) and d3-cholesterol, and the disappearance of each was monitored by LC-atmospheric pressure chemical ionization-MS (m/z 369.3516 and 372.3705, respectively). In theory, if C-H bond breaking were rate-limiting in the initial hydroxylation then the rate of d3-cholesterol consumption would be slower relative to the d0 compound due to the increased strength of a C-D bond.
The kinetic isotope experiment was designed similarly to the benchtop experiment described above, but with some modifications. P450 11A1 (5 μM) was reconstituted with the redox partners AdR (10 μM) and Adx (5 μM) on ice (10 min) prior to dilution in potassium Hepes (50 mM, pH 7.4) and H2O and addition of d3-cholesterol substrate (5 μM). The mixture was preincubated (5 min) prior to initiation with NADPH (2.5 mM, from 25 mM in potassium Hepes (50 mM, pH 7.4)) thus bringing all components to their desired final concentrations. After completing the desired incubation time, an aliquot (500 μl) was removed from the incubation and added to vials containing CH2Cl2 (5 ml) and the vials were mixed with a vortex device and placed on ice. The quenched reactions were centrifuged (10^3g, 5 min, 23 °C) to separate layers, and the organic (bottom) layers were removed (4 ml) and transferred to fresh glass vials. The extraction process was repeated and the two extracts (2 × 4 ml) from each sample were combined to maximize product recovery. Samples (8 ml) were brought to dryness under a stream of nitrogen, and the dried residues were dissolved in CH3OH (25 μl) and transferred to autosampler vials for analysis.
Samples (held at 4 °C) were injected (10 μl) using a Waters Acquity UPLC system on a Acquity BEH octadecylsilane (C18) 2.1 mm × 50 mm (1.7 μm) UPLC column (held at 25 °C) with a flow rate of 0.5 ml min^−1 using an isocratic mobile phase of CH3CN (only). The column eluate was subjected to atmospheric pressure chemical ionization and analyzed using a Thermo Fisher Scientific LTQ XL Orbitrap mass spectrometer instrument operating in positive mode, scanning from m/z 100 to 500, with a resolution setting of 120,000. Data were processed using Xcalibur QualBrowser (Thermo Fisher Scientific) software (version 2.0.7; https://www.thermofishcer.com/order/catalog/product/OPTON).

In a further series the target is T3, P450 11A1 (CYP11A1) (Homo sapiens, UniProt P05108).
T3 construct: M A S T R S P R P F N E I P S P G D N; Met-Ala (N-terminal start residues in place of the transit peptide and Ile40) (N); made in house; host or cells: E. coli (P450 11A1 in C41(DE3); Adx and AdR in E. coli)
T3 sequence (P05108 41-521 limits assumed): T1 sequence (P05108 41-521 limits assumed)
T3 sequence (P00257 59-186 partner): T2 sequence (P00257 59-186 partner)
The description is as above. Type of series: biochemical. Conditions: human, pH 7.4; 5 μM P450, 5 μM sterol, low Adx single-turnover; read-out: sterol half-life (t1/2) (converted). On the procedure:
as §1
The kinetic isotope experiment was designed similarly to the benchtop experiment described above, but with some modifications. P450 11A1 (5 μM) was reconstituted with the redox partners AdR (10 μM) and Adx (5 μM) on ice (10 min) prior to dilution in potassium Hepes (50 mM, pH 7.4) and H2O and addition of d3-cholesterol substrate (5 μM). […]
Samples (held at 4 °C) were injected (10 μl) using a Waters Acquity UPLC system on a Acquity BEH octadecylsilane (C18) 2.1 mm × 50 mm (1.7 μm) UPLC column (held at 25 °C) with a flow rate of 0.5 ml min^−1 using an isocratic mobile phase of CH3CN (only). The column eluate was subjected to atmospheric pressure chemical ionization and analyzed using a Thermo Fisher Scientific LTQ XL Orbitrap mass spectrometer instrument operating in positive mode, scanning from m/z 100 to 500, with a resolution setting of 120,000. […]

Series [4] addresses T1, human P450 11A1. Description: Stopped-flow ketoconazole trap, koff and binding rate measurements. How it is done:
Interaction of the azole nitrogen atom with the P450 heme produces a bathochromic (“type II”) spectral shift (to ∼430 nm)—an inverse effect of the binding of substrate.
Measurement of kon rate(s) was not performed because the sterols are delivered in a solution of HPCD, from which the dissociation rate is not known.
Determinations of koff rates were performed as previously described ([33]).

With `CC(C)CCC=O` [4-methylpentanal], the “spectral shift with P450 11A1” value at human P450 11A1 [1] is on record as “did not induce a spectral shift”.
For `CCCCCCCCCCCC(=O)OC[C@H](COP(=O)([O-])OCC[N+](C)(C)C)OC(=O)CCCCCCCCCCC` [L-α-dilauroyl-sn-glycero-3-phosphocholine], the “effect on P450 11A1 catalytic activity” value at human P450 11A1 [2] was “not enhanced”.
Same read-out and setting: the value for `CCCCCCCC/C=C\CCCCCCCC(=O)OC[C@H](COP(=O)([O-])OCC[N+](C)(C)C)OC(=O)CCCCCCC/C=C\CCCCCCCC` [L-α-dioleyl-sn-glycero-3-phosphocholine] was “not enhanced”.
On to `[2H]C([2H])(CCC(C)C)[C@@]([2H])(C)[C@H]1CC[C@H]2[C@@H]3CC=C4C[C@@H](O)CC[C@]4(C)[C@H]3CC[C@@]21C` [d3-cholesterol, (20R)-Cholest-5-ene-20,22,22-d3-3β-ol], for which the rate of disappearance at human P450 11A1 [3] (5 μM P450, 5 μM sterol, exponential decay fit) was 0.032 s⁻¹. In addition, the results for the kinetic isotope effect result at human P450 11A1 [3] and on human P450 11A1 [3] (listed as d3-Cholesterol) were “did not observe a kinetic isotope effect” and “no kinetic deuterium isotope effect”, respectively. For the same compound, the half-life at 5 μM on P450 11A1 (CYP11A1) was 0.367 min.
Broadly, the kon is a measure of how fast the partners come together. As for `CC(=O)N1CCN(c2ccc(OCC3COC(Cn4ccnc4)(c4ccc(Cl)cc4Cl)O3)cc2)CC1` (centres unmarked) [ketoconazole, reference compound], the “observed rate of ketoconazole binding (ΔA430)” value on human P450 11A1 [4] (20 μM ketoconazole mixed with 2 μM P450 11A1, equal volumes, 23 °C) was 5.3 s⁻¹. Also, the association rate constant (kon) on human P450 11A1 [4] (read-out: fast phase of biexponential fit (ketoconazole kon), cholesterol data, trap experiment with P450-cholesterol complex) was 710000 M⁻¹ s⁻¹; at human P450 11A1 [4] (read-out: fast phase of biexponential fit (ketoconazole kon), pregnenolone data, trap experiment with P450-pregnenolone complex) it was 790000 M⁻¹ s⁻¹; on human P450 11A1 [4] (read-out: rate of ketoconazole binding to unliganded P450 11A1 (kon), stopped-flow, unliganded enzyme), no less than 500000 M⁻¹ s⁻¹.
As to Tween 20, on human P450 11A1 [2] (0.25 μM P450 11A1, 50 μM cholesterol, 40-fold Adx), the concentrations found inhibitory is > 0.008 % (w/v). Also, the “effect on P450 11A1 catalytic activity” value at human P450 11A1 [2] is on record as “inhibitory; also recorded: inhibited; also recorded: strongly inhibitory; also recorded: inhibits the enzyme”.
As for cardiolipin, the “effect on P450 11A1 catalytic activity” value on human P450 11A1 [2] is listed as “inhibit”.
